Experimental findings from ChEMBL document CHEMBL5528050, “Discovery of a Novel Series of Homo sapiens Caseinolytic Protease P Agonists for Colorectal Adenocarcinoma Treatment via ATF3-Dependent Integrated Stress Response” (J Med Chem, 2024) are described below.

The subject of this assay is HCT-116. As to the kind of experiment: Antitumor activity against human HCT-116 cells xenografted in BALB/c nude mouse model assessed as reduction in tumor volume at 1.25 mg/kg,iv administered twice weekly and measured upto 21 days relative to control. The format is functional. On the set-up: scale not given: the % may be the effect or the level left. The conditions noted are these: time <= 21 day. (In general: In xenograft studies the graft and the host belong to different species.)

For `N#Cc1cccc(CN2CCC=C(C(=O)NCc3ccc(C(F)(F)F)cc3)C2)c1`, the Activity amounted to 55.1%.
